Results on 14 molecules are retold here after patent publication US10287300B2 (Merck Patent GmbH, priority 2012, dated 2019).

Assay [1] has as its target P70S6K (T412E mutant, Millipore) (Homo sapiens (Human), UniProt P23443, T412E). As to the kind of experiment: P70S6K enzyme assay. The assay is classed as biochemical. Particulars: 24 μM ATP, 90 min at 25° C. The procedure:
P70S6K inhibitor compounds were diluted and plated in 96 well plates. A reaction mixture including the following components was then added to the compound plate to initiate the enzyme reaction; P70S6K (3 nM, T412E mutant, Millipore) was mixed with 24 μM ATP in an assay buffer containing 100 mM Hepes (pH 7.5), 5 mM MgCl2, 1 mM DTT, 0.015% Brij and 1 μM of the substrate peptide FITC-AHA-AKRRRLSSLRA-OH (derived from the S6 ribosomal protein sequence, FITC=fluorescein isothiocyanate, AHA=6-aminohexanoic acid). The reaction was incubated for 90 min at 25° C., before the addition of 10 mM EDTA to stop the reaction. The proportion of substrate and product (phosphorylated) peptide was analysed on a Caliper Life Sciences Lab Chip 3000, using a pressure of −1.4 psi, and upstream and downstream voltages of −3000 and −700 respectively. Product peaks were resolved before substrate peaks on the resulting chromatograms.

In assay [2] the target is His-AKT (Full Length) (Homo sapiens (Human), UniProt P31749). As to the kind of experiment: AKT enzyme assay. The assay is classed as biochemical. The note with it: 160 uM ATP, 90 min at 25° C. Here is the method: A TTP Mosquito liquid handling instrument was used to place 125 nl of the appropriate concentration of inhibitor in 100% DMSO (for a dose response curve calculation) into each well of a 384-well plate. To this reaction components were added to a final volume of 12.5 μl: • 0.1 ng/μl His-AKT (Full Length), (Invitrogen, Part # P2999, Lot #641228C). • 160 uM ATP (Fluka, 02055) • 1 mM DTT (Sigma, D0632) • 1 mM MgCl2 (Sigma, M1028) • 1 μM substrate peptide (sequence FITC-AHA-GRPRTSSFAEG-NH2), • synthesized by Tufts Peptide Synthesis service. • 100 mM HEPES pH 7.5 (Calbiochem, 391338) • 0.015% Brij-35 (Sigma, B4184)
Chain of His-AKT (Full Length) (P31749 whole entry): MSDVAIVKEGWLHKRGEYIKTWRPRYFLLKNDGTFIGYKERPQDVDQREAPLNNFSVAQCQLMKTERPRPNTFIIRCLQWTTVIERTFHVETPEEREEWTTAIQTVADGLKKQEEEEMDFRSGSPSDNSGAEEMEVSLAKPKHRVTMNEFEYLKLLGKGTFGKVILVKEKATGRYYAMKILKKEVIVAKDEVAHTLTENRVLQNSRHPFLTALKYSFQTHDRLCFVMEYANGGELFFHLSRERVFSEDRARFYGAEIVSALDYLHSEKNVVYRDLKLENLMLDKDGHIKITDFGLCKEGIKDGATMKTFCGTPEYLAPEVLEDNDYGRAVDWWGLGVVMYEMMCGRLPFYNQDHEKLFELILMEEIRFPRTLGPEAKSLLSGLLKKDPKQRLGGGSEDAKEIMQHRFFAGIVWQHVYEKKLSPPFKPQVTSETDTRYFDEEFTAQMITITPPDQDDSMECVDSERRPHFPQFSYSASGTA
The reaction was incubated for 90 min at 25° C., and then stopped by the addition of 70 μl of Stop buffer (100 mM HEPES pH 7.5, 0.015% Brij-35, 10 mM EDTA (Sigma, E7889)).
The plate was read on a Caliper LC 3000 in an Off-Chip mobility shift assay format, using the following parameters for a 12-sipper chip: screening pressure −2.3 psi, upstream voltage −500, and downstream voltage −3000. These conditions caused unphosphorylated substrate and phosphorylated product peptide to resolve as separate peaks allowing direct measurement of percentage of conversion of substrate to product. The percent conversion was plotted against concentration of inhibitor to produce a sigmoidal dose response curve, from which an IC50 was calculated.

Bounds are passed on as bounds.

Chain of P70S6K (T412E mutant, Millipore) (P23443 whole entry T412E): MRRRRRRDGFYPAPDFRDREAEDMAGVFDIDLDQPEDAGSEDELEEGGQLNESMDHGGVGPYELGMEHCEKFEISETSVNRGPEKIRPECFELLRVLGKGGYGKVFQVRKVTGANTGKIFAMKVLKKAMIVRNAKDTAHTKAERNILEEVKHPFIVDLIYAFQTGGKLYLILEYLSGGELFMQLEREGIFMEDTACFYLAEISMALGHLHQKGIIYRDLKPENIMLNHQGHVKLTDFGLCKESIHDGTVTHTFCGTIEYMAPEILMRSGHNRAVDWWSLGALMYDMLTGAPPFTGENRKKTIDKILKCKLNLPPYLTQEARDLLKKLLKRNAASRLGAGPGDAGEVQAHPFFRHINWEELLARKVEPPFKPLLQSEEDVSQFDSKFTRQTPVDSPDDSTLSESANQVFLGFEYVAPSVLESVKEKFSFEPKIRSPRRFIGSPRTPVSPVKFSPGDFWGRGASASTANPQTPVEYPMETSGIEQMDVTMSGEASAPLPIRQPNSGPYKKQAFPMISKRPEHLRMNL

By IC50 is commonly meant the concentration needed to halve the response being measured. A high value points to a need for much substance. Take `O=C1CNc2ncnc(N3CCN(C(CN4CCCC4)c4ccc(F)c(F)c4)CC3)c2N1` (stereo not shown) [Compound A52, 4-(4-(1-(3,4-difluorophenyl)-2-(pyrrolidin-1-yl)ethyl)piperazin-1-yl)-7,8-dihydropteridin-6(5H)-one]: the IC50 in assay [1] and in assay [2] was over 1000 nM in each case.

For `O=C1CNc2ncnc(N3CCN(C(CN4CCCCC4)c4ccc(F)c(F)c4)CC3)c2N1` (stereo not shown) [Compound A53, 4-(4-(1-(3,4-difluorophenyl)-2-(piperidin-1-yl)ethyl)piperazin-1-yl)-7,8-dihydropteridin-6(5H)-one], the IC50 in assay [1] and in assay [2] was over 1000 nM in each case.

As to `CN(C)CC(c1ccc(F)c(Cl)c1)N1CCN(c2ncnc3c2NC(=O)CN3)CC1` (stereo not shown) [Compound A54, 4-(4-(1-(3-chloro-4-fluorophenyl)-2-(dimethylamino)ethyl)piperazin-1-yl)-7,8-dihydropteridin-6(5H)-one], the IC50 in assay [1] and in assay [2] was over 1000 nM in each case.

For the molecule `O=C1CNc2ncnc(N3CCN(C(CN4CCC4)c4ccc(F)c(Cl)c4)CC3)c2N1` (stereo not shown) [Compound A55, 4-(4-(2-(azetidin-1-yl)-1-(3-chloro-4-fluorophenyl)ethyl)piperazin-1-yl)-7,8-dihydropteridin-6(5H)-one], the IC50 in assay [1] and in assay [2] was over 1000 nM in each case.

Regarding `O=C1CNc2ncnc(N3CCN(C(CN4CCCC4)c4ccc(F)c(Cl)c4)CC3)c2N1` (stereo not shown) [Compound A56, 4-(4-(1-(3-chloro-4-fluorophenyl)-2-(pyrrolidin-1-yl)ethyl)piperazin-1-yl)-7,8-dihydropteridin-6(5H)-one], the IC50 in assay [1] and in assay [2] was over 1000 nM throughout.

As to `O=C1CNc2ncnc(N3CCN(C(CN4CCCCC4)c4ccc(F)c(Cl)c4)CC3)c2N1` (stereo not shown) [Compound A57], the IC50 in assay [1] and in assay [2] was over 1000 nM throughout.

On to `CN(C)CC(c1ccc(Cl)c(F)c1)N1CCN(c2ncnc3c2NC(=O)CN3)CC1` (stereo not shown) [Compound A58, 4-(4-(1-(4-chloro-3-fluorophenyl)-2-(dimethylamino)ethyl)piperazin-1-yl)-7,8-dihydropteridin-6(5H)-one], for which the half-maximal inhibitory concentration (IC50) was over 1000 nM in assay [1] and 101 to 500 nM in assay [2].

In the case of `CNCC(c1ccc(Cl)c(F)c1)N1CCN(c2ncnc3c2NC(=O)CN3)CC1` (stereo not shown) [Compound A59, 4-(4-(1-(4-chloro-3-fluorophenyl)-2-(methylamino)ethyl)piperazin-1-yl)-7,8-dihydropteridin-6(5H)-one], the 50% inhibitory concentration (IC50) in assay [1] and in assay [2] was over 1000 nM throughout.

With `O=C1CNc2ncnc(N3CCN(C(CN4CCC4)c4ccc(Cl)c(F)c4)CC3)c2N1` (stereo not shown) [Compound A60, 4-(4-(2-(azetidin-1-yl)-1-(4-chloro-3-fluorophenyl)ethyl)piperazin-1-yl)-7,8-dihydropteridin-6(5H)-one], the IC50 in assay [1] and in assay [2] was over 1000 nM in each case.

On to `O=C1CNc2ncnc(N3CCN(C(CN4CCCC4)c4ccc(Cl)c(F)c4)CC3)c2N1` (stereo not shown) [Compound A61, 4-(4-(1-(4-chloro-3-fluorophenyl)-2-(pyrrolidin-1-yl)ethyl)piperazin-1-yl)-7,8-dihydropteridin-6(5H)-one], for which the figures for the 50% inhibitory concentration (IC50) in assay [1] and in assay [2] were over 1000 nM and 101 to 500 nM, respectively.

Turning to `O=C1CNc2ncnc(N3CCN(C(CN4CCCCC4)c4ccc(Cl)c(F)c4)CC3)c2N1` (stereo not shown) [Compound A62, 4-(4-(1-(4-chloro-3-fluorophenyl)-2-(piperidin-1-yl)ethyl)piperazin-1-yl)-7,8-dihydropteridin-6(5H)-one], the concentration for half-maximal inhibition (IC50) was over 1000 nM in assay [1] and 501 to 1000 nM in assay [2].

Consider `CN(C)CCNCC(c1ccc(C(F)(F)F)cc1)N1CCN(c2ncnc3c2NC(=O)CN3)CC1` (stereo not shown) [Compound A63, 4-(4-(2((2-(dimethylamino)ethyl)amino)-1-(4-(trifluoromethyl)phenyl)-ethyl)piperazin-1-yl)-7,8-dihydropteridin-6(5H)-one], for which the 50% inhibitory concentration (IC50) in assay [1] and in assay [2] was over 1000 nM each time.

For the molecule `CN(C)CCNCC(c1cccc(C(F)(F)F)c1)N1CCN(c2ncnc3c2NC(=O)CN3)CC1` (stereo not shown) [Compound A64, 4-(4-(2-((2-(dimethylamino)ethyl)amino)-1-(3-(trifluoromethyl)phenyl)-ethyl)piperazin-1-yl)-7,8-dihydropteridin-6(5H)-one], the IC50 in assay [1] and in assay [2] was over 1000 nM in each case.

In the case of `Cc1ccc(C(CNCCN(C)C)N2CCN(c3ncnc4c3NC(=O)CN4)CC2)cc1` (stereo not shown) [Compound A65, 4-(4-(2-((2-(dimethylamino)ethyl)amino)-1-(p-tolyl)ethyl)piperazin-1-yl)-7,8-dihydropteridin-6(5H)-one], the half-maximal inhibitory concentration (IC50) in assay [1] and in assay [2] was over 1000 nM in each case.
